In article PMC6217552, “Refining the structure−activity relationships of 2-phenylcyclopropane carboxylic acids as inhibitors of O-acetylserine sulfhydrylase isoforms” (Journal of Enzyme Inhibition and Medicinal Chemistry, 2018):
≈ marks a conversion by molar mass, not a printed value. Entries after “also recorded” stand apart in the source; their conditions may differ.

Legend:
StOASS-B [1] = target: T1, StOASS-B (Salmonella typhimurium, UniProt P29848); set-up: method as in PMID 28821763; conditions: low affinity active site binder; read-out: Kd for OASS-B; cited from earlier work
T1 construct: made in house; host or cells: E. coli
T1 sequence (P29848 1-303): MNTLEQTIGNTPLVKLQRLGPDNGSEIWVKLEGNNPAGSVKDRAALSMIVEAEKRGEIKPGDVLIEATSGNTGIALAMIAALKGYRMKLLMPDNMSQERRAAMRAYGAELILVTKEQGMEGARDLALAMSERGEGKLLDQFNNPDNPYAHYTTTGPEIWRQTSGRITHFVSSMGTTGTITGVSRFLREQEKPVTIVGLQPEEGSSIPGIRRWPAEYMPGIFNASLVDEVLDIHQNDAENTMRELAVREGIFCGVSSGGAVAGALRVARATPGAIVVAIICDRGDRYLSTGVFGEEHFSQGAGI

StOASS-A = target: T2, StOASS-A (Salmonella typhimurium, UniProt P0A1E3); test: Steady-state enzyme activity assay, discontinuous ninhydrin cysteine determination; format: biochemical, Salmonella enterica serovar Typhimurium; conditions: value in brackets in IC50 column
T2 construct: made in house; host or cells: E. coli
Protocol: (§1) StOASS-A and StOASS-B, expressed in E. coli, were purified by metal affinity chromatography as described previously. Proteins were more that 95% pure based on SDS-PAGE analysis (data not shown).
(§2) Enzyme activity under steady-state conditions was measured by a discontinuous method as described previously. Briefly, the reaction was carried out in 100 mM HEPES pH 7.0 in the presence of 6 nM OASS, 60 nM BSA to prevent enzyme adhesion to tube wall, 1 mM OAS (equal to the K m value of this subsrate), 0.6 mM Na2S (a saturating concentration), 1% DMSO and variable concentrations of inhibitor. Reaction was stopped at time intervals by the addition of acetic acid and concentration of cysteine was determined by a modification of the ninhydrin assay. The fractional velocity as a function of inhibitor concentration was determined and IC50 was calculated by the following equation: vi/v0=1/1+(I/IC50) where, v 0 is the reaction velocity in the absence of inhibitor and v i is reaction velocity in the presence of inhibitor at concentration [I].
(§3) For a competitive inhibitor against OAS the IC50 measured under these conditions is about 2⋅K d.

StOASS-B [2] = target: T1, StOASS-B; test: as above; format: biochemical; conditions: value in brackets in IC50 column
Protocol: as §1, §2, §3

[3] = system: Escherichia coli ATCC25922; test: Minimal inhibitory concentration (CLSI) in medium with limiting cysteine; format: cell-based; conditions: E. coli ATCC25922, medium with limiting cysteine; data not shown
Protocol: Minimal inhibitory concentration assays were performed according to the CLSI guidelines (Clinical and Laboratory Standards Institute; Performance Standards for Antimicrobial Susceptibility Testing; Twenty-Fourth Informational Supplement; CLSI document M100-S24, CLSI; 2014.). The compounds were dissolved in DMSO to obtain a stock solution 100-fold more concentrated than the desired higher concentration and then 10 serial dilutions were performed. One microliter of each dilution was transferred to the microtiter plate.
Escherichia coli ATCC25922 was grown until log phase on liquid Mueller–Hinton broth at 37 °C in a shaker at 225 rpm. Bacterial suspension was then centrifuged at 2500 rpm for 15 min and diluted with phosphate buffer to obtain a solution with a turbidity of about 0.5 McFarland. Bacterial suspension was further diluted (1:100) with fresh LB 20%. Fifty microliters of the bacterial suspension containing 10^6 CFU/mL were inoculated into each well, to obtain a final concentration of 5 × 10^5 CFU/mL. Each plate contained growth control wells and sterility check wells.
We investigated the ability of the new set of compounds to interfere with bacterial growth.

[4] = Solubility limit in the buffer used for activity assays; format: physicochemical; conditions: aqueous buffer
Description: It is possible to conclude that expansion of the series towards the para position of the phenyl ring, unless carried out with small groups, is detrimental for the activity of the compounds. […] Even though the carboxylic acid group is essential for the binding to OASS[13] ^, [27] ^, [28], its scarce diffusion across biological membranes is a well-known issue[32] ^, [33]. Therefore, to preserve the key interactions with the target, we carried out the replacement of the carboxylic acid by several isosters (Scheme 2). […] This prompted us to further investigate the mechanism of inhibition of these molecules, since the residual activity at saturating concentrations is significant (about 40 − 50%, Figure 3, panel A). […] This hampers the accurate determination of the inhibition mechanism due to limitations to the range of inhibitor concentration that can be explored. However, since partial inhibition is a typical feature of allosteric inhibitors, we used a method developed by our group[24] to assess if compound 25 is able to displace a low affinity active site binder, 1-ethylcyclopropane-1,2-dicarboxylic acid, that forms a highly fluorescent complex with OASS. […] This is a strong indication that compound 25 is not able to compete for binding to the active site with 1-ethylcyclopropane-1,2-dicarboxylic acid. […]

OASS-B = target: T3, OASS-B (Salmonella typhimurium, UniProt P29848); test: Fluorescence competitive binding assay (displacement of 1-ethylcyclopropane-1,2-dicarboxylic acid); conditions: 200 µM 1-ECP-1,2-DCA, 190-200 µM compound, 100 mM Hepes, 1% DMSO, pH 7, 20 °C
T3 construct: made in house; host or cells: E. coli
T3 sequence (P29848 1-303): T1 sequence (P29848 1-303)
Protocol: Ligand affinity was measured by direct fluorimetric titrations, monitoring the fluorescence emission spectrum of cofactor PLP upon excitation at 412 nm. 0.1–1 µM OASS was titrated by increasing concentrations of ligand in 100 mM HEPES pH 7.0, 1% DMSO, at 20 °C. The dependence of fluorescence emission intensity on the concentration of compound was fitted to a binding isotherm: I=I0+ΔI·[ligand]/Kd+[ligand] where, I is the fluorescence emission intensity at a given ligand concentration, I 0 is the fluorescence emission intensity in the absence of ligand, ΔI is the amplitude and K d is the dissociation constant. When the K d was lower than the concentration of the protein used in the assay, the dependence of the fluoresecnce emission intensity on ligand concentration was fitted to a quadratic equation that describes tight binding. The fluorescence competitive binding assay, described elsewhere, was used to evaluate whether compounds bind at the active site of the enzyme or to an allosteric site. […] Binding of a higher affinity compound to the active site displaces 1-ethylcyclopropane-1,2-dicarboxylic acid and leads to a decrease in the fluorescence emission intensity.
Figure 3. […] Fluorescence emission spectra upon excitation at 412 nm were collected in the absence and presence of 200 µM 1-ethylcyclopropane-1,2-dicarboxylic acid (1-ECP-1,2-DCA). […]

T2 sequence (P0A1E3 whole entry): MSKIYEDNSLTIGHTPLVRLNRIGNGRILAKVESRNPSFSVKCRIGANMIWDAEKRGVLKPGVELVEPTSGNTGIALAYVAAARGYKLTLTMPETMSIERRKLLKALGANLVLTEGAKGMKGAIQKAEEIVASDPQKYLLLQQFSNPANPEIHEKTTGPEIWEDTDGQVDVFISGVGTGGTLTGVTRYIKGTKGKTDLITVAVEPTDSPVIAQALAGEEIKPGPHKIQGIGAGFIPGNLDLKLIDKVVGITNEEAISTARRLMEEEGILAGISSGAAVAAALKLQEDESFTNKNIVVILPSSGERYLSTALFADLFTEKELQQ

SMILES	Kd (StOASS-B [1]) [µM]	OASS-A percent inhibition measured at saturation of inhibitor or at the highest inhibitor concentration allowed by solubility (StOASS-A) [%]	OASS-B percent inhibition measured at saturation of inhibitor or at the highest inhibitor concentration allowed by solubility (StOASS-B [2]) [%]	Interference with bacterial growth (MIC) [3]	solubility [4] [µM]	Displacement of 1-ethylcyclopropane-1,2-dicarboxylic acid from OASS-B (OASS-B)
CCC1(C(=O)O)CC1C(=O)O (stereo not drawn) [1-ethylcyclopropane-1,2-dicarboxylic acid]	170					
Cc1ccc(C[C@]2(NS(C)(=O)=O)C[C@H]2c2ccccc2)cc1 [Compound 24, (1R,2S)-1-N-(1-(4-methylbenzyl)-2-phenylcyclopropyl)methanesulfonamide]		45	50	none of the synthesised compounds was able to interfere significantly with bacterial growth	~250 (≈ 78.9 µg/mL)	
Cc1ccc(C[C@]2(NS(=O)(=O)c3ccc(C)cc3)C[C@H]2c2ccccc2)cc1 [Compound 25, (1R,2S)-4-methyl-N-(1-(4-methylbenzyl)-2-phenylcyclopropyl)benzenesulfonamide]		39	35		~50 (≈ 19.6 µg/mL)	unable to displace the compound up to an equimolar concentration of about 200 μM; also recorded: does not change the emission spectrum
